In PubChem BioAssay (NCI):
Where “and” joins values, the source holds several entries; their conditions need not be identical. Equal entries are not always repeated.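 Tested at 5 concentrations; 48 h exposure; 96-well plates; endpoints linearly interpolated, else capped at highest concentration. At the GI50, growth is halved. TGI: total growth inhibition.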

What was measured:
Test in all cases: NCI tumour cell line growth inhibition, 48 h
OVCAR-5 ovarian = tested on: OVCAR-5 ovarian
UACC-62 melanoma = tested on: UACC-62 melanoma
NCI-H522 lung = tested on: NCI-H522 lung
SN12C renal = tested on: SN12C renal
HCC-2998 colon = tested on: HCC-2998 colon
SF-295 CNS = tested on: SF-295 CNS
HOP-92 NSCLC = tested on: HOP-92 NSCLC
LOX IMVI melanoma = tested on: LOX IMVI melanoma
CAKI-1 renal = tested on: CAKI-1 renal
HT29 colon = tested on: HT29 colon

Structure (SMILES)	GI50 (OVCAR-5 ovarian) [µM]	TGI (OVCAR-5 ovarian)	GI50 (UACC-62 melanoma) [µM]	TGI (UACC-62 melanoma)	GI50 (NCI-H522 lung)	TGI (NCI-H522 lung) [µM]	GI50 (SN12C renal)	TGI (SN12C renal) [µM]	GI50 (HCC-2998 colon) [µM]	TGI (HCC-2998 colon)	GI50 (SF-295 CNS) [µM]	TGI (SF-295 CNS) [µM]	GI50 (HOP-92 NSCLC) [µM]	TGI (HOP-92 NSCLC) [µM]	GI50 (LOX IMVI melanoma)	TGI (LOX IMVI melanoma)	GI50 (CAKI-1 renal) [µM]	TGI (CAKI-1 renal) [µM]	GI50 (HT29 colon)	TGI (HT29 colon) [µM]
Cc1cccc2c(=O)c3c(sc12)c(NCCCN)nc1ccccc13	1.56	3.03 µM	1.6	3.06 µM	1.57 µM	3.34	1.47 µM	2.93	1.67	3.39 µM	1.75	3.29	1.53	5.12	1.46 µM	2.98 µM	1.18	2.47	–	–
CCC(CO)Nc1nc(NCc2ccccc2)c2n[nH]c(C(C)C)c2n1 (configuration not stated)	13.4	36 µM	11.3	24.7 µM	14.5 µM	34.1	14.1 µM	31.7	12.6	26 µM	16.1	32.7	3.75	19.5	7.55 µM	20.9 µM	3	16.2	3.88 µM	27.8
C=C(C)[C@@H]1C/C=C(/COC(C)=O)CC[C@H]2O[C@@]2(C)CC/C=C(\C)CC1	> 100	> 100 µM	> 100	> 100 µM	> 100 µM	> 100	> 100 µM	> 100	> 100	> 100 µM	> 100	> 100	> 100	> 100	20.3 µM	46.5 µM	> 100	> 100	–	–
CC1CCCc2c1n[nH]c2CC1CC(=O)NC(=O)C1 (configuration not stated)	–	> 100 µM	–	> 100 µM	–	> 100	–	> 100	–	> 100 µM	–	> 100	–	> 100	–	> 100 µM	–	> 100	–	> 100
C=CCC1(CN(C)C)CC/C(=C\c2cc(OC)c(OC)c(OC)c2)C1=O (configuration not stated)	–	> 100 µM	–	43.1 µM	–	29.4	–	54.8	–	35.5 µM	–	92.8	–	> 100	–	43 µM	–	> 100	–	40.6
C/C(COc1ccc2oc(-c3ccccc3)cc(=O)c2c1)=N\O	22	84.7 µM	16.8	81.4 µM	> 100 µM	> 100	24 µM	> 100	19.5	> 100 µM	12.8	33.6	37.4	> 100	1.38 µM	3.34 µM	32.5	> 100	22.7 µM	> 100
Oc1cccc2cccnc12	–	21.1 µM and > 100 µM	–	26.8 µM and > 100 µM	0.22 µM and 0.487 µM and 1.92 µM	–	5.56 µM and 29.8 µM and 4.23 µM	> 100	–	28 µM and > 100 µM and 47.9 µM	–	> 100	–	> 100	1.65 µM and 0.709 µM and 2.29 µM	14.8 µM and > 100 µM	–	> 100	3.53 µM and 13.8 µM and 4.64 µM	> 100
NC(=O)c1ccc(I)c([N+](=O)[O-])c1	25.5	> 68.1 µM	56.1	> 100 µM	6.06 µM	14.6	> 75.9 µM	> 100	50.4	> 100 µM	> 92.7	> 100	> 70.6	> 100	44.5 µM	> 100 µM	32.2	> 57.4	58 µM	> 100
Oc1ccc(Br)cc1C=NC1CCCCC1	–	> 100 µM	–	> 100 µM	–	> 100	–	19.5	–	> 100 µM	–	> 100	–	> 100	–	> 100 µM	–	> 100	–	> 100
COc1cc(OCCCN2CCCC2)ccc1Nc1ncc(Cl)c(Nc2ccccc2P(C)(C)=O)n1	1.07	22.5 µM	2.43	12.9 µM	0.811 µM	3.95	2.52 µM	25.5	2.65	25.7 µM	2.7	14.2	0.163	1.25	1.32 µM	4.4 µM	2.02	5.64	0.521 µM	3.79
COc1ccc(-c2oc3ncnc(N)c3c2-c2ccc(NC(=O)Nc3cc(C(F)(F)F)ccc3F)cc2)cc1	3.15	8.82 µM	0.956	4.23 µM	1.23 µM	4.28	0.828 µM	3.75	2.08	5.81 µM	1.88	7.47	0.808	5.4	0.658 µM	3.21 µM	0.838	6.69	0.844 µM	3.12
O=c1oc2ccc(F)cc2c(=O)n1-c1ccc(I)cc1F	3.4	> 54.5 µM	0.293	1.1 µM	0.322 µM	–	0.381 µM	5.45	3.1	9.85 µM	1.86	3.68	0.206	0.577	0.374 µM	2.29 µM	0.337	2.19	3.29 µM	> 33
NCCCNCc1c2ccccc2c(CNCCCN)c2ccccc12	–	62.1 µM	–	> 100 µM	–	21	–	18.5	–	30.9 µM	–	56.2	–	49.1	–	–	–	> 100	–	94.3
C#Cc1cccc(Nc2nc(C)nc3cc(NC(=O)CCl)ccc23)c1	0.953	5.38 µM	1.01	3.81 µM	0.454 µM	0.92	0.896 µM	3.58	3.79	7.76 µM	3.39	6.86	0.67	1.89	0.424 µM	0.95 µM	2.97	6.23	1.06 µM	4.15
CCCC[C@H](CCc1ccccc1)N(C(=O)OC)N1CCC[C@H]1COC	–	32.4 µM	–	30.9 µM	–	28.1	–	32.7	–	28.1 µM	–	33.5	–	40.5	–	34.9 µM	–	> 100	–	29.4
